Results as given in patent US8673890B2, “2,3-dihydro-1H-isoindol-1-imine derivatives useful as thrombin PAR-1 receptor antagonist” (Janssen Pharmaceutica NV, priority 2009, dated 2014).
Several values for one entry are separate records, joined by “and”; a condition that tells them apart may be missing. Identical values can stand only once.

Molecular target: T1, thrombin receptor (PAR-1) (Homo sapiens, UniProt P25116)
T1 construct: Human aortic smooth muscle cells (HSMC) were purchased from Cascade Biologics; host or cells: human aortic smooth muscle cells (HSMC)
T1 sequence (P25116 22-425): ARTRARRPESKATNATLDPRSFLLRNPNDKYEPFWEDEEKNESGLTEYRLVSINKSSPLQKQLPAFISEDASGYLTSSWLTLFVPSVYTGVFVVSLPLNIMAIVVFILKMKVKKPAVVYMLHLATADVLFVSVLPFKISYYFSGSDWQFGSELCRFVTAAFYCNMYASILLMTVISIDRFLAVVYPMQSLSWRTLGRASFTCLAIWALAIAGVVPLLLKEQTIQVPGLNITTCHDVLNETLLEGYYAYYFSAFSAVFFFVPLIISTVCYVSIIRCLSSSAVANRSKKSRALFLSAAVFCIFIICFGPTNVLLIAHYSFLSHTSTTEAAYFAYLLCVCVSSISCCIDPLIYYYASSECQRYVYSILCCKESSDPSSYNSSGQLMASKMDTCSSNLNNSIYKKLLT
Experiment: FLIPR-based calcium-flux assay with human smooth muscle cells (Har peptide agonist)
Assay type: cell-based
Details: HSMC; 30 nM Har (PAR1) peptide agonist; 80-min drug incubation; multiple values = individual measurements
Protocol: Human aortic smooth muscle cells (HSMC) were purchased from Cascade Biologics (Portland, Oreg.) and cultured in M-231 containing smooth muscle cell growth supplement and 1× Antibiotic-Antimycotic.
To determine agonist concentration for compound testing: On the day prior to the assay, 100 μL of cells (2×10^5/mL) were seeded in clear, flat-bottom black-wall, tissue culture treated polystyrene 96-well plates and incubated at 37° C., 5% CO2. On the day of the assay, 50 μL of complete dye loading solution (FLIPR Calcium 3 Kit, Molecular Devices) was added to each well containing 100 μL of culture media. The cells were incubated for 30-45 min at 37° C., in 5% CO2 before initiating the assay on the FLIPR. The agonist effect of PAR1 peptide (S-(p-F-Phe)-Har-L-Har-KY-NH2; Har=homoarginine; referred to herein as “Har” peptide) was tested and the EC50 was determined. The EC60-70 dose was used (30 nM) for compound testing.
Compound testing: On the day prior to the assay, 90 μL of cells (2.2×10^5/mL) were seeded in clear, flat-bottom black-wall, tissue culture treated polystyrene 96-well plates and incubated at 37° C., 5% CO2. On the day of the assay, the test compounds were prepared at 10× in 3% DMSO Hanks buffer and 10 μL was added to each well (final DMSO concentration of 0.3%). The cells were incubated 20 min at 37° C., 5% CO2. Culture medium containing testing compounds was dumped and the cells were washed four times with DPBS containing 0.1% of BSA and re-fed with 80 μL of growth medium. 70 μL of BD (fluorescent) dye was loaded to the cells and incubated 45 min at 37° C. incubator. The plates were equilibrated to room temperature for 15 min. 4× PAR1 peptide (30 nM final concentration) agonist plate and the cell plate were placed in FLIPR's assay chamber. 50 μL agonist was added to the cells and data was recorded for 5 min. Raw fluorescence data was exported for each well and tabulated versus time within an ASCII file. Data was then imported into Excel® and the peak response over basal level was determined. The percent inhibition for each test compound was calculated by the changes of fluorescent density as a % inhibition of the control Har peptide response to obtain an IC50.
Representative compounds of the present invention were tested according to the procedure described in Biological Example 1 above, with results in Table 8 below. In Table 8 below, where multiple values are listed for a particular compound, said numbers represent individual measurements (tests) for said compound.

| Compound | IC50 |
| --- | --- |
| CC(C)(C)c1cc(C(=O)CN2Cc3cc4c(cc3C2=N)OCC(CCN2CCOCC2)CO4)cc(C(C)(C)C)c1O (stereo not drawn) [Compound 12] | 0.551 µM |
| CN1CCN(CCC2COc3cc4c(cc3OC2)C(=N)N(CC(=O)c2cc(C(C)(C)C)c(O)c(C(C)(C)C)c2)C4)CC1 (stereo not drawn) [Compound 15] | > 3 µM |
| CN(C)CCC1COc2cc3c(cc2OC1)C(=N)N(CC(=O)c1cc(C(C)(C)C)c(O)c(C(C)(C)C)c1)C3 (stereo not drawn) [Compound 16, 1-(3,5-di-tert-butyl-4-hydroxyphenyl)-2-(3-(2-(dimethylamino)ethyl)-7-imino-3,4-dihydro-[1,4]dioxepino[2,3-f]isoindol-8(2H,7H,9H)-yl)ethanone] | > 1 µM |
| COc1c(N2CCOCC2)cc(C(=O)CN2Cc3cc4c(cc3C2=N)OCCN(C(=O)OC(C)(C)C)CCO4)cc1C(C)(C)C [Compound 41, tert-butyl 10-(2-(3-tert-butyl-4-methoxy-5-morpholinophenyl)-2-oxoethyl)-9-imino-2,3,5,6,10,11-hexahydro-[1,4,7]dioxazonino[2,3-f]isoindole-4(9H)-carboxylate] | 0.54 µM and > 1 µM and 1.2 µM |
| COc1c(N2CCOCC2)cc(C(=O)CN2Cc3cc4c(cc3C2=N)OCCNCCO4)cc1C(C)(C)C [Compound 42, 1-(3-tert-butyl-4-methoxy-5-morpholinophenyl)-2-(9-imino-3,4,5,6-tetrahydro-[1,4,7]dioxazonino[2,3-f]isoindol-10(2H,9H,11H)-yl)ethanone] | 0.66 µM and > 1 µM and 1.3 µM |
| COc1c(N2CCOCC2)cc(C(=O)CN2Cc3cc4c(cc3C2=N)OCC(CCN2CCOCC2)CO4)cc1C(C)(C)C (stereo not drawn) [Compound 43] | 0.45 µM and 0.68 µM |
| COc1c(N2CCOCC2)cc(C(=O)CN2Cc3cc4c(cc3C2=N)OCC(CC2NCCS2)CO4)cc1C(C)(C)C (stereo not drawn) [Compound 44] | 0.1 µM and 0.12 µM |
| COc1c(N2CCOCC2)cc(C(=O)CN2Cc3cc4c(cc3C2=N)OCC(CCN2CCSC2)CO4)cc1C(C)(C)C (stereo not drawn) [Compound 45] | 0.15 µM and 0.18 µM |
| CC(C)(C)c1cc(C(=O)CN2Cc3cc4c(cc3C2=N)OCc2cccnc2CO4)cc(C(C)(C)C)c1O [Compound 48] | 0.044 µM and 0.053 µM |
| COc1c(Br)cc(C(=O)CN2Cc3cc4c(cc3C2=N)OCc2ncccc2CO4)cc1C(C)(C)C [Compound 54] | 1.1 µM and > 3 µM and 0.75 µM |
| COC(=O)c1cc2c(cc1C(=O)OC)COc1cc3c(cc1OC2)CN(CC(=O)c1cc(C(C)(C)C)c(O)c(C(C)(C)C)c1)C3=N [Compound 102] | 0.35 µM |
| COC(=O)c1cc2c(cc1C(=O)OC)COc1cc3c(cc1OC2)CN(CC(=O)c1cc(N2CCOCC2)c(OC)c(C(C)(C)C)c1)C3=N [Compound 103] | 1.1 µM |

Results, then the molecule that gave them:

| IC50 | Compound |
| --- | --- |
| 0.13 µM and 0.068 µM | CC(C)(C)c1cc(C(=O)CN2Cc3cc4c(cc3C2=N)OCCCO4)cc(C(C)(C)C)c1O [Compound 4, 1-(3,5-di-tert-butyl-4-hydroxyphenyl)-2-(7-imino-3,4-dihydro-[1,4]dioxepino[2,3-f]isoindol-8(2H,7H,9H)-yl)ethanone] |
| 0.032 µM | CC(C)(C)c1cc(C(=O)CN2Cc3cc4c(cc3C2=N)OCCCCO4)cc(C(C)(C)C)c1O [Compound 5] |
| 0.16 µM | CC1(C)COc2cc3c(cc2OC1)C(=N)N(CC(=O)c1cc(C(C)(C)C)c(O)c(C(C)(C)C)c1)C3 [Compound 9] |
| > 3 µM | CC(C)(C)c1cc(C(=O)CN2Cc3cc4c(cc3C2=N)OCC(CCN2CCCC2)CO4)cc(C(C)(C)C)c1O (stereo not drawn) [Compound 13] |
| 0.78 µM | CC(C)(C)c1cc(C(=O)CN2Cc3cc4c(cc3C2=N)OCC(CC=O)CO4)cc(C(C)(C)C)c1O (stereo not drawn) [Compound 14, 2-(8-(2-(3,5-di-tert-butyl-4-hydroxyphenyl)-2-oxoethyl)-7-imino-2,3,4,7,8,9-hexahydro-[1,4]dioxepino[2,3-f]isoindol-3-yl)acetaldehyde] |
| > 3 µM | CNCCC1COc2cc3c(cc2OC1)C(=N)N(CC(=O)c1cc(C(C)(C)C)c(O)c(C(C)(C)C)c1)C3 (stereo not drawn) [Compound 37] |
